Experimental data as given in publication PMC10818749, “Toxicity Studies of Cardiac-Targeting Peptide Reveal a Robust Safety Profile” (Pharmaceutics, 2024).
“Also recorded” adds a separate entry of the source. Ends that are not written are not given here.

How the values were obtained:
NAV1.5 = NAV1.5 (Homo sapiens, UniProt Q14524); assay: in vitro; format: cell-based; details: up to 30 µM
Procedure: (§1) Ion Channel Assays: Cell lines were grown, plated, and loaded with 1× loading buffer containing 1× dye and 2.5 mM freshly prepared probenecid. Assays were performed, and activity was measured using a FLIPR Tetra. Percent of activation and percent of inhibition were calculated to determine agonist and antagonist activity, respectively. […]
(§2) The KINOMEscan screening platform employs a novel and propri- Membrane Potential Assay etary active site-directed competition binding assay to quantitatively The FLIPR® Membrane Potential Assay Kit is used which utilizes a pro-measure interactions between test compounds and the kinases. prietary fluorescent indicator dye in combination with a quencher to This robust and reliable assay technology affords investigators the reflect real-time membrane potential changes associated with ion ability to extensively annotate compounds with accurate, precise channel activation and ion transporter proteins. […]
(§3) Compounds that bind the kinase active site and directly (sterically) be monitored within a single experiment. […]
Upon stimulation, […]
(§4) a quantitative, precise and ultra-sensitive qPCR method that detects the receptor signals release of intracellular calcium, which results in the associated DNA label (D). In a similar manner, dissociation con- an increase of dye fluorescence. […]
1. Compound activity was measured on a FLIPR Tetra (MDS). […]

CAV1.2 = CAV1.2 (Homo sapiens, UniProt Q13936); assay: in vitro; format: cell-based; details: blocker; FLIPR Tetra; up to 30 µM; read-out: RC50 (the source's name)
Procedure: as §1, §2, §3, §4
Neurotransmitter Transporter Uptake Assay spectrophotometric, fluorometric, and luminescent readouts. […]

CHO-KCNQ1/minK = CHO-KCNQ1/minK (Homo sapiens, UniProt P15382+P51787); details: CTP 0.1 to 30 µM; CHO cells; step to +60mV; 0.1% Pluronic F-68
CD1-wildtype mice = assay: Mouse toxicity studies (weight, blood count, serum chemistries); format: in vivo; details: for alkaline phosphatase level, individual mouse: female
Procedure: Mouse Toxicity Studies: Sixty CD1-wildtype mice (1:1 male to female ratio) were obtained from Charles River and divided into 6 groups of 10, 5 females and 5 males each. Ten control mice were injected with 1X PBS. Treated mice were injected intravenously with a single dose of CTP 150 μg/Kg. Groups of 10 treated mice (5 male, 5 female) were euthanized on day 0 (immediately after injection), 1, 2, 7, and 14 post-injection using inhalational CO2. After euthanasia, the chest cavity was opened, and blood drawn via cardiac puncture for complete blood count and serum chemistries. Following the blood draw, the right atrium was nicked and the whole animal perfusion fixed using 3 mL of formalin injected into the left ventricular apex. The control group was euthanized on day 2. A complete blood count, metabolic profile, and thyroid studies were performed.

KvLQT1/minK = KvLQT1/minK (Homo sapiens, UniProt P15382+P51787); assay: KvLQT1/minK ion channel assay; format: cell-based; details: SAFETYscan ion channel assay, up to 30 µM
Chain of KvLQT1/minK (P51787 whole entry): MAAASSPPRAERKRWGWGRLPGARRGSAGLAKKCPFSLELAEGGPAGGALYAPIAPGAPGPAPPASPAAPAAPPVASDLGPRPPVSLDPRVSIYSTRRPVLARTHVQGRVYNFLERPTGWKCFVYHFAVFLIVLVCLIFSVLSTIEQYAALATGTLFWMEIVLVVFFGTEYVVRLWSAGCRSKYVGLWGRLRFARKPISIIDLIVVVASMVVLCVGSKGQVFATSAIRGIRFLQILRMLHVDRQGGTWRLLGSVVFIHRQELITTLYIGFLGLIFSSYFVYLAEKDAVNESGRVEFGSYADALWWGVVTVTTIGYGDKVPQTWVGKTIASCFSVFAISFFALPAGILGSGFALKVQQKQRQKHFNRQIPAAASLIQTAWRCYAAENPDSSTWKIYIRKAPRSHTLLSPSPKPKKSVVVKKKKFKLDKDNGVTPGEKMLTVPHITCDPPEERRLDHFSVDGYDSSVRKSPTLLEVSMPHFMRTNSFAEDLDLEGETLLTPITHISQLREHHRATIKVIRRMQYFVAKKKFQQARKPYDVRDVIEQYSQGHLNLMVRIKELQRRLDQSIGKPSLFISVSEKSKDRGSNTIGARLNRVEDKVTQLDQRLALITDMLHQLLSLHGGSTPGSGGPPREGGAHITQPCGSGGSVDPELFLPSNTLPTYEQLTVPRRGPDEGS
Procedure: as §1
The FLIPR Potassium Assay Kit from Molecular Devices is used. It exploits the permeability of thallium ions (Tl+) through both voltage-and ligand-gated potassium (K+) channels. A novel, highly-sensiti ve
Tl+ indicator dye is utilized which produces a bright fluorescent signal upon the binding to Tl+ conducted through potassium chan-nels. […]
KINOMEscan® Assay fluorescence for improved signal/noise ratio.
as §2

[1] = female mice, CTP 150 μg/Kg single i.v., Day 0, recovered by Day 1
[2] = female mice, CTP 150 μg/Kg single i.v., vs control
[3] = male mice, CTP 150 μg/Kg single i.v., vs control

Chain of NAV1.5 (Q14524 whole entry): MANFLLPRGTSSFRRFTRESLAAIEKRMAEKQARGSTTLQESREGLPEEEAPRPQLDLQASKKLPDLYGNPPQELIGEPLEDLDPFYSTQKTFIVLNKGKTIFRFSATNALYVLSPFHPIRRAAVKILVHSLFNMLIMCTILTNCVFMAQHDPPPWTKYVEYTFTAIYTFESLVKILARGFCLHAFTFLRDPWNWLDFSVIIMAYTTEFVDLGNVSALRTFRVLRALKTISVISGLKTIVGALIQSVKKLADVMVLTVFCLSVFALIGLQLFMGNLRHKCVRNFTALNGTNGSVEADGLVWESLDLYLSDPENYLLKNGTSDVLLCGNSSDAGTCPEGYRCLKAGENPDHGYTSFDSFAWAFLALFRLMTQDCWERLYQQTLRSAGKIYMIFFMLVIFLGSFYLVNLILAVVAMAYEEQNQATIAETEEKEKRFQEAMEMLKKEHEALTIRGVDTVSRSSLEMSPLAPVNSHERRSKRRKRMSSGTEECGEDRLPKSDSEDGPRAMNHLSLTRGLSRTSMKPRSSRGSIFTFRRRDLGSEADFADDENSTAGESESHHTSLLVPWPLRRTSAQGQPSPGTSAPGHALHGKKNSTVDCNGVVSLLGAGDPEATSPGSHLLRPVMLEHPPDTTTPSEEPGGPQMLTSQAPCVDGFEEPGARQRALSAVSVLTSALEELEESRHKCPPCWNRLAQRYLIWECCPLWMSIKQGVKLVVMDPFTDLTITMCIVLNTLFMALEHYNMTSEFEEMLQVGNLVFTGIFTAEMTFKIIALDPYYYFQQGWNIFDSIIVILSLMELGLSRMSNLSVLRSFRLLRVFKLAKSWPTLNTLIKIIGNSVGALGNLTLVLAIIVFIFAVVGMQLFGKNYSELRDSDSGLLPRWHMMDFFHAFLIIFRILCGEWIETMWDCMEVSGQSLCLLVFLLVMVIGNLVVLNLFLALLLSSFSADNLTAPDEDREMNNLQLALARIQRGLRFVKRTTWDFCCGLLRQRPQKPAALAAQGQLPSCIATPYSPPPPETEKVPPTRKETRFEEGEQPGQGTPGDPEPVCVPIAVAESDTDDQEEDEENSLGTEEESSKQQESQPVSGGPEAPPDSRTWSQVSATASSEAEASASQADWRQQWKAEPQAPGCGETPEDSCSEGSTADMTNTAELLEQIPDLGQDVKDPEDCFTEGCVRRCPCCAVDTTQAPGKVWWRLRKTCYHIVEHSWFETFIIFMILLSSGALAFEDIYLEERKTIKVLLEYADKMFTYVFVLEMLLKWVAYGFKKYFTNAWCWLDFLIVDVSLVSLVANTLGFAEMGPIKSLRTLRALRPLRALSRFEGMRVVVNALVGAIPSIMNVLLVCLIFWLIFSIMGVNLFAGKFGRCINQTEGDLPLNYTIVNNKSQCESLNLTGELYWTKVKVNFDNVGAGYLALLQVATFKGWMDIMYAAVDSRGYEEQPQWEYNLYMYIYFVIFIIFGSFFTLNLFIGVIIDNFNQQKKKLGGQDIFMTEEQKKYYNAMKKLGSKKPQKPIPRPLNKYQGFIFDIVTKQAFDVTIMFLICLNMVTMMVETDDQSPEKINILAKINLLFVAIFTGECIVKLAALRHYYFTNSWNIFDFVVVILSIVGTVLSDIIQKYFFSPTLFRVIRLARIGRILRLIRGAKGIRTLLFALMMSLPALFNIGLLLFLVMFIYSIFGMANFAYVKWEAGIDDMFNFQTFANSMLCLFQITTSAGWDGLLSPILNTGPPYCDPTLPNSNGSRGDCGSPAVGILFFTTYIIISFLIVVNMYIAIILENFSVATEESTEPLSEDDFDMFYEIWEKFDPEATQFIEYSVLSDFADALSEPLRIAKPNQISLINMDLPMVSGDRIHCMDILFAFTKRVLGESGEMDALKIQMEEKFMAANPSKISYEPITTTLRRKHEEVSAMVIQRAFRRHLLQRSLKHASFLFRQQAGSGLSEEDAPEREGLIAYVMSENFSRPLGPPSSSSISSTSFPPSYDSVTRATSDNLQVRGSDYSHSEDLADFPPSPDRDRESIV

## APWHLSSQYSRT [CTP]
NAV1.5; SAFETYscan ion channel assay
  blocking or activation: no significant blocking or activation
NAV1.5; blocker, FLIPR Tetra, read-out: RC50 (the source's name)
  IC50: > 30 µM
CAV1.2
  IC50: > 30 µM
CHO-KCNQ1/minK
  Estimated IC50: N/C (Not calculable, inhibition >25% was not observed.)
CD1-wildtype mice; CTP 150 µg/Kg single dose, except borderline alkaline phosphatase increase in female mice
  toxicity signals overall: no significant toxicity signals
CD1-wildtype mice; control vs injected mice of each sex, CTP 150 μg/Kg single i.v., two-week course
  body weight: no significant difference
CD1-wildtype mice; female mice, any of the groups, upper limit of normal not crossed, CTP 150 μg/Kg single i.v.
  mean alkaline phosphatase level: ≤ 140 IU/L
CD1-wildtype mice; female mice, CTP 150 μg/Kg single i.v.
  alkaline phosphatase recovery: returning to baseline by Day 2
CD1-wildtype mice; [1]
  platelet count: decreased on Day 0; also recorded: significant decrease
  white blood cell count: decreased on Day 0; also recorded: significant decrease
CD1-wildtype mice; female mice, CTP 150 μg/Kg single i.v., only on Day 0, recovered by Day 1
  bilirubin: significant decrease
CD1-wildtype mice; [2]
  alanine aminotransferase: no significant difference
  alkaline phosphatase change: borderline increase in alkaline phosphatase levels in female mice on Days 0 and 1, with recovery to control levels by Day 2; also recorded: rise in alkaline phosphatase
  aspartate aminotransferase: no significant difference
  blood urea nitrogen: no significant difference
  creatinine: no significant difference
  hemoglobin: no significant difference
CD1-wildtype mice; day 0, first of two borderline elevated mice, CTP 150 μg/Kg single i.v.
  alkaline phosphatase level, individual mouse: 151 IU/L
CD1-wildtype mice; day 0, second of two borderline elevated mice, CTP 150 μg/Kg single i.v.
  alkaline phosphatase level, individual mouse: 166 IU/L
CD1-wildtype mice; male mice, CTP 150 μg/Kg single i.v., normalizing at later time-points
  calcium levels: increased marginally only on Day 0
CD1-wildtype mice; [3]
  alanine aminotransferase: no difference
  alkaline phosphatase: no difference
  aspartate aminotransferase: no difference
  blood urea nitrogen: decrease; also recorded: significantly lower on Days 0–2
  creatinine: decrease; also recorded: significantly lower on Days 0–2
  hemoglobin: no difference
  phosphorous levels: no difference
  platelet count: no difference
  total bilirubin: no difference
  white blood cell count: no difference
KvLQT1/minK
  blocking or activation: no significant blocking or activation
  opening action: nor any significant opening action
